Data reported in patent publication US8334268B2, “Insecticidal active ingredient combinations (formononetins + insecticides)” (priority 2006, dated 2012).

Test system: Meloidogyne incognita
Experiment: Meloidogyne incognita test (MELGIN), gall formation on lettuce roots
Format: in vivo
Conditions: 0.5 mg ai/seed, lettuce seed dressing; nematicidal action by formation of galls; 100% = no galls
Protocol: To produce a suitable preparation of active compound, 1 part by weight of active compound is mixed with the stated amounts of solvent and emulsifier, and the concentrate is diluted with water to the desired concentration.
Lettuce seeds are dressed with the desired amount of formononetin. Vessels are filled with soil infected with mycorrhiza, active compound solution, Meloidogyne incognita egg/larvae suspension and the treated lettuce seeds. The lettuce seeds germinate and the plants develop. On the roots, galls are formed.
After the desired period of time, the nematicidal action is determined in % by the formation of galls. 100% means that no galls have been found; 0% means that the number of galls on the treated plants corresponds to that of the untreated control.

SMILES: COc1ccc(-c2coc3cc(O)ccc3c2=O)cc1 [Formononetin of the formula (I), formononetin]
- Effect in % after 21 d: 3.3%
